# From patent US9781930B2, “3′-substituted-abscisic acid derivatives” (Valent BioSciences Corporation, priority 2014, dated 2017)
# Tests used:
# [1] = test system: Arabidopsis thaliana seed; assay: Seed germination assay for testing Examples 29-46; format: in vivo; set-up: key: + + + +: The other derivatives were scored by potency relative to S-ABA.; (S)-ABA potency = + + +.; + +: The other derivatives were scored by potency relative to S-ABA.; ++: The other derivatives were scored by potency relative to S-ABA.; +: The other derivatives were scored by potency relative to S-ABA.; −− = no effect; conditions: 0.16-40 μM in 6-well plates, 4 days after vernalization, compared with (S)-ABA
# Protocol: Seed Germination Assay for Testing Examples 29-46 To determine the germination inhibition potency of the (±)-ABA derivatives, germination assays were performed with the model plant Arabidopsis thaliana. Arabidopsis seed was sterilized by soaking in 70% ethanol solution for 5 minutes, followed by 5% sodium hypochlorite solution for 10 minutes. The seeds were then washed three times with sterile water. The test compounds were tested in germination assay at five concentrations (0.16, 0.64, 2.5, 10, and 40 μM) with (S)-ABA (0.16, 0.64 and 2.5 μM) as a control in 6-well plates. DMSO stock solutions of (S)-ABA and the derivatives at 1,000 fold of the test concentrations were prepared. The stock solutions (5 μL) of (S)-ABA and the derivatives were added to the wells in the assay plate with 0.8% agar solutions of ½ Murashige and Skoog media. Sixteen sterile seeds were placed on the solid agar medium at an appropriate spacing. The assay plates were sealed with surgical tape and wrapped in aluminum foil, and the seeds were vernalized at 4° C. for 2 days. The assay plates were incubated in a growth chamber at 22.5° C. under daily light cycles of 16 hours (30 μmol/m^2·sec) for 4 days after the vernalization. The germination inhibition potency of the derivatives was scored and compared with that of (S)-ABA. The results are summarized in Table 2 “Table 2: Arabidopsis seed germination inhibition activity of (±)-ABA derivatives.”
# (S)-ABA 8′-hydroxylase = target: T1, (S)-ABA 8′-hydroxylase (Arabidopsis thaliana, UniProt Q9FH76); conditions: according to Ueno, et al.; cited from earlier work
# T1 sequence (Q9FH76 1-463): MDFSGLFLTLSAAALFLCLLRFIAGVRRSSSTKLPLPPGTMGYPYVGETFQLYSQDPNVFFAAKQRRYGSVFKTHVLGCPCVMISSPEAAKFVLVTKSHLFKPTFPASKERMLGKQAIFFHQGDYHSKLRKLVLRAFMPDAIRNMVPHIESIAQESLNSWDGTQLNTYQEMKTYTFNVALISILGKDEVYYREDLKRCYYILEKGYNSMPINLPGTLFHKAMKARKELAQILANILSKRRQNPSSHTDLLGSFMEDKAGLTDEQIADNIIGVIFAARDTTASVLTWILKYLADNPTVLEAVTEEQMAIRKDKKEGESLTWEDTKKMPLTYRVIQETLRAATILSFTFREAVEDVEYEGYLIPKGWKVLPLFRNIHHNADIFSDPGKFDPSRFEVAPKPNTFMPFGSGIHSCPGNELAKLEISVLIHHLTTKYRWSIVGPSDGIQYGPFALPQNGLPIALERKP
# rice seedling = conditions: according to Ueno, et al.; cited from earlier work
Structure (SMILES),Arabidopsis seed germination inhibition potency [1],activity in (S)-ABA 8′-hydroxylase inhibition assay compared to (S)-ABA ((S)-ABA 8′-hydroxylase),activity in rice seedling elongation assay compared to (S)-ABA (rice seedling)
"CC1=C(C2CCCC2)C(=O)CC(C)(C)C1(O)/C=C/C(C)=C\C(=O)O (racemic) [Example 42, (2Z,4E)-5-(3-cyclopentyl-1-hydroxy-2,6,6-trimethyl-4-oxocyclohex-2-en-1-yl)-3-methylpenta-2,4-dienoic acid]",−−,,
"CC1=C(CC(C)C)C(=O)CC(C)(C)C1(O)/C=C/C(C)=C\C(=O)O (racemic) [Example 34, (2Z,4E)-5-(1-hydroxy-3-isobutyl-2,6,6-trimethyl-4-oxocyclohex-2-en-1-yl)-3-methylpenta-2,4-dienoic acid]",−−,,
"CC1=C(C2(C)CC2)C(=O)CC(C)(C)C1(O)/C=C/C(C)=C\C(=O)O (racemic) [Example 36, (2Z,4E)-5-(1-hydroxy-2,6,6-trimethyl-3-(1-methylcyclopropyl)-4-oxocyclohex-2-en-1-yl)-3-methylpenta-2,4-dienoic acid]",−−,,
"CC1=C(C(C)(C)C)C(=O)CC(C)(C)C1(O)/C=C/C(C)=C\C(=O)O (racemic) [Example 35, (2Z,4E)-5-(3-(tert-butyl)-1-hydroxy-2,6,6-trimethyl-4-oxocyclohex-2-en-1-yl)-3-methylpenta-2,4-dienoic acid]",−−,,
CC1=C(C)C(O)(/C=C/C(C)=C\C(=O)O)C(C)(C)CC1=O (racemic) [(±)-3′-methyl-ABA],,lower activity than (S)-ABA,equal activity to (S)-ABA
"CCCCCCC1=C(C)C(O)(/C=C/C(C)=C\C(=O)O)C(C)(C)CC1=O (racemic) [Example 37, (2Z,4E)-5-(3-hexyl-1-hydroxy-2,6,6-trimethyl-4-oxocyclohex-2-en-1-yl)-3-methylpenta-2,4-dienoic acid]",−−,,
"CC1=C(c2ccccc2)C(=O)CC(C)(C)C1(O)/C=C/C(C)=C\C(=O)O (racemic) [Example 46, (2Z,4E)-5-(3-hydroxy-2,4,4-trimethyl-6-oxo-3,4,5,6-tetrahydro-[1,1′-biphenyl]-3-yl)-3-methylpenta-2,4-dienoic acid]",−−,,
